From US9155778B2, “Tripeptides that down regulate the activity of plasma membrane transporters including sodium-D-glucose cotransporter SgIt1” (JULIUS-MAXMILLIANS-UNIVERSITAT WURZBURG, priority 2005, dated 2015) come the findings set out here.

Read-outs that look alike come from different tables or passages of the source. Peptide text beside a SMILES is read from it.

Assay [1] has as its target T1, hSGLT1 (Homo sapiens, UniProt P13866).
T1 construct: expressed in transfected cells; host or cells: Xenopus laevis oocytes (cRNA injection)
T1 sequence (P13866 1-664): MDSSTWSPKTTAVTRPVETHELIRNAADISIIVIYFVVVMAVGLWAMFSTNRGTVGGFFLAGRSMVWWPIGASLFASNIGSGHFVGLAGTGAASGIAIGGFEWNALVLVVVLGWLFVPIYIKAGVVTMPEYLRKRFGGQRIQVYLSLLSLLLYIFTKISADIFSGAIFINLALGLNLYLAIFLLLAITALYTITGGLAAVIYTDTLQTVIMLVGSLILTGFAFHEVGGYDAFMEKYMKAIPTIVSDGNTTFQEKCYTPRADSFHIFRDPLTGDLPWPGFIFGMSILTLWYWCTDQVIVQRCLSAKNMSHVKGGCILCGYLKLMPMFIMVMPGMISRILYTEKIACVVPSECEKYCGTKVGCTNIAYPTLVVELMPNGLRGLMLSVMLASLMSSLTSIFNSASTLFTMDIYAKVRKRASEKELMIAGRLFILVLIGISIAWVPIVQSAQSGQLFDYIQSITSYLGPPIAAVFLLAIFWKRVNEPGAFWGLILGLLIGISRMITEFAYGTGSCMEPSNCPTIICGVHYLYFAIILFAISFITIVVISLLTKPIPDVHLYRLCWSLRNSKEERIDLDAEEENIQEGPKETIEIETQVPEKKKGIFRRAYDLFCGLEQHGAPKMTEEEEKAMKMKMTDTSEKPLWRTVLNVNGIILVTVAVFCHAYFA
In words: hSGLT1 expressed [14C]AMG uptake in Xenopus oocytes after injection of hRS1 protein or peptides. It counts as cell-based.

Assay [2] concerns the target T2, hPEPT1 (Homo sapiens, UniProt P46059).
T2 construct: expressed in transfected cells; host or cells: Xenopus laevis oocytes (30 ng cRNA per oocyte)
T2 sequence (P46059 1-708): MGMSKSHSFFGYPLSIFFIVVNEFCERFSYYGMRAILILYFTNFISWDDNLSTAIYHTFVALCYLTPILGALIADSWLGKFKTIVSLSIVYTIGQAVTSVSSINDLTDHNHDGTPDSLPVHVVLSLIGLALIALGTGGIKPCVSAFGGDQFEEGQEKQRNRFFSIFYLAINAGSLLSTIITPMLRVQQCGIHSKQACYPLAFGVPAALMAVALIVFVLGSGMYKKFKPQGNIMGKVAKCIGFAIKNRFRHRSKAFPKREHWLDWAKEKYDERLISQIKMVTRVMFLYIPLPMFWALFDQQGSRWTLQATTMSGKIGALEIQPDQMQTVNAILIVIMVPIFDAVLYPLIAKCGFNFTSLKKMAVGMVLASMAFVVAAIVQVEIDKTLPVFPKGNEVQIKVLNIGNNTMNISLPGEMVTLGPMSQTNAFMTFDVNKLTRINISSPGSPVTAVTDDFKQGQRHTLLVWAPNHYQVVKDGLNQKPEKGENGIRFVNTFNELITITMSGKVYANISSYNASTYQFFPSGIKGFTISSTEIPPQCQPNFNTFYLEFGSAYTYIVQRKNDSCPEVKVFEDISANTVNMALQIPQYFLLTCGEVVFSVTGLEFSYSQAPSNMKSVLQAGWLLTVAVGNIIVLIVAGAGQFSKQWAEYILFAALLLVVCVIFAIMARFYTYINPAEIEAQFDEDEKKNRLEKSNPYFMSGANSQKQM
In words: Electrogenic peptide transport by hPEPT1 in oocytes, two-electrode voltage clamp. In kind it is cell-based. Conditions: 5 mM peptide. As for the experimental part:
(§1) The oocytes were incubated for three days at 16° C. in ORi buffer (in mM: 5 HEPES-Tris, pH 7.4, 100 NaCl, 3 KCl, 2 CaCl2, and 1 MgCl2). […] The oocytes were superfused with Ori buffer titrated to pH 6.5, the membrane potential of the oocytes was clamped to −40 mV, and inward current induced by superfusion with Ori buffer (pH 6.5) containing 5 mM of a control dipeptide or 5 mM of the tested tripeptide was measured. • (D) Expression and Purification of hRS1
For orientation: Two-electrode voltage clamp is typically applied to oocytes expressing channels or transporters.

Assay [3] has as its system RS1. In words: Immunostaining of RS1 at the TGN in LLC-PK1 cells after brefeldin A. It counts as cell-based. To be noted: 2 μg/ml brefeldin A, 1 or 5 min, subconfluent LLC-PK1 cells. As for the experimental part: For immunostaining, LLC-PK1 cells were grown on coverslips to about 50% confluence. The cells were washed twice with washing buffer (5 mM 3-(N-morpholino)propanesulfonic acid-NaOH, pH 7.4, 100 mM NaCl, 3 mM KCl, 2 mM CaCl2, and 1 mM MgCl2), fixed for 12 min with 4% (w/v) paraformaldehyde diluted in washing buffer, and washed twice again. Free aldehyde groups were quenched by 10 min incubation with washing buffer containing 40 mM glycine. For immunoreactions, washed cells were permeabilized by a 10-min incubation with washing buffer containing 0.25% (w/v) TritonX-114, and incubated over night at 4° C. with primary antibodies diluted in washing buffer. The dilutions of primary antibodies were as follows: rabbit-anti-RS1-Ab 1:50 (Valentin (2000), Biochim. Biophys. Acta, 1468, 367-380); QIS30 directed against SGLT1 1:400 (Kipp (2003), Am. J. Physiol., 285, C737-C749), sheep-anti-TGN46 1:125 (from Diagnostic International, Schriesheim, Germany). […]
The specificity of the antibodies was controlled as follows. […] In controls, no cross-reactivity of the used secondary antibodies with false primary antibodies used in the same experiment was detected. […]

Assay [4] deals with T3, rbSGLT1 (Oryctolagus cuniculus, UniProt P11170).
T3 construct: expressed in transfected cells; host or cells: Xenopus laevis oocytes (cRNA injection)
T3 sequence (P11170 1-662): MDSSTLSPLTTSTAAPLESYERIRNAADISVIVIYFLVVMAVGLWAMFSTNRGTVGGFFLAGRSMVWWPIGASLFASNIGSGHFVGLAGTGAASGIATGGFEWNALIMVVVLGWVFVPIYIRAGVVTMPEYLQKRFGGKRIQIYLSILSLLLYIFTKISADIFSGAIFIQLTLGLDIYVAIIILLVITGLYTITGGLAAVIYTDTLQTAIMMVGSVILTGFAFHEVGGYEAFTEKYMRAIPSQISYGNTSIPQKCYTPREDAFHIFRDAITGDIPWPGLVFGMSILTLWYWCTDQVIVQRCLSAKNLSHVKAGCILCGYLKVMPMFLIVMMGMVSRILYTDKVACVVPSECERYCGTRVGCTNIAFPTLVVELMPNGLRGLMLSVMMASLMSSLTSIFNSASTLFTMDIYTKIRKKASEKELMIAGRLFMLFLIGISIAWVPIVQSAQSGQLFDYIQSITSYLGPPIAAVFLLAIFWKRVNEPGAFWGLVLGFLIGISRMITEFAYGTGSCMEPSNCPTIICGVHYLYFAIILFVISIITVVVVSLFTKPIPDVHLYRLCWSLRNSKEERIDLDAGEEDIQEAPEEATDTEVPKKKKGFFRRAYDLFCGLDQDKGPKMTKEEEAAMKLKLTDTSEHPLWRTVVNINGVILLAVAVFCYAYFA
In words: rbSGLT1 expressed [14C]AMG uptake in oocytes after peptide injection. In kind it is cell-based, rabbit. Conditions: 50 nl containing 3 mM of each peptide, 30 min, 50 μM [14C]AMG; compared with hSGLT1. As for the experimental part: as §1
To develop drugs on the basis of the identified peptides animal models are required.

Assay [5] addresses T4, human organic cation transporter 1 (hOCT1) (Homo sapiens, UniProt O15245).
T4 construct: expressed in transfected cells; host or cells: oocytes
T4 sequence (O15245 1-554): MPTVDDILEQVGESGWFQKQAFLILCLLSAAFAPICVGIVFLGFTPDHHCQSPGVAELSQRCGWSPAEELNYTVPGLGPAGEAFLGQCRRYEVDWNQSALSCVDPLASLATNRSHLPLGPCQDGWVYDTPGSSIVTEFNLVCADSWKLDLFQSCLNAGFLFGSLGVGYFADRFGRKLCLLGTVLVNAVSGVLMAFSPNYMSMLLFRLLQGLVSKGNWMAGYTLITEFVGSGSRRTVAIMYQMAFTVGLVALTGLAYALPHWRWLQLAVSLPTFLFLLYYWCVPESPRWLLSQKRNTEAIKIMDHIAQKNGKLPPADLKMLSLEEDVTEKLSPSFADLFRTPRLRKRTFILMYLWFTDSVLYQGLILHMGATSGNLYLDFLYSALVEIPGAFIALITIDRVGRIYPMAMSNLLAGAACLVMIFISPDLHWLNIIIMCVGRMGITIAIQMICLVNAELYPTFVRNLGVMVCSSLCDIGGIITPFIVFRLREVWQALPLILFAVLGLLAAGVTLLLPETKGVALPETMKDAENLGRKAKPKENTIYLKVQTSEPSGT
The assay can be described thus: [14C]TEA uptake expressed by hOCT1 in oocytes. It counts as cell-based. Conditions: intracellular AMG concentration of 0.1 mM.
Method: Corresponding measurements were performed in the presence of intracellular AMG concentrations of 0.1 mM, <0.01 mM or 10 mM.

On to SVQPCQENQ [reference compound], for which the “inhibition of [14C]AMG uptake by injected peptide” value in assay [1] (50 nl/oocyte containing 1.5 mM peptide, 30 min before uptake) is recorded as “No inhibition”.
Turning to “SDSDRIEP [Serine-Aspartic acid-Serine-Aspartic acid-Arginine-Isoleucine-Glutamic acid-Proline]”, in assay [1], the “inhibition of glucose uptake expressed by hSGLT1” value is “about 50%”, the “inhibition of hSGLT1 expressed AMG uptake after stimulation of protein kinase C” value is recorded as “not changed”, the “inhibition of hSGLT1 expressed AMG uptake with coexpressed dominant negative mutant of dynamin I” value is listed as “not changed” and the “inhibitory effect on expression of hSGLT1 when the exocytotic pathway is blocked” value is on record as “could be prevented”.
`NCC(=O)N[C@@H](CCC(N)=O)C(=O)O` [GC, glycylglutamine, reference compound] (H-Gly-Gln-OH): the “inward current induced in oocytes expressing hPEPT1” value in assay [2] (pH 6.5, clamped to −40 mV) is on record as “significant inward currents”. Besides, the “inward current in control oocytes not injected with hPEP1-cRNA” value in assay [2] (pH 6.5, data not shown) is reported as “no inward currents”.
For `C[C@H]1CCC/C=C/[C@@H]2C[C@H](O)C[C@H]2[C@H](O)/C=C/C(=O)O1` [brefeldin A], the “RS1 immunoreactivity at the TGN / perinuclear compartment” value in assay [3] is on record as “released from the TGN”.
Take “IKPSDSDRIEP [Isoleucine-Lysine-Proline-Serine-Aspartic acid-Serine-Aspartic acid -Arginine-Isoleucine-Glutamic acid-Proline]”: in assay [1], the “inhibition of glucose uptake expressed by hSGLT1” value is “about 50%”. Further, the “effect on glucose uptake expressed by rbSGLT1” value in assay [4] is “same effect”.

B1: hRS1 protein: purified human regulatory protein RS1 with six C-terminal histidines, SEQ ID NO: 2 (protein, listed as Homo sapiens)
chain: MSSLPTSDGFNHPARSSGQSPDVGNPMSLARSVSASVCPIKPSDSDRIEPKAVKALKASAEFQLNSEKKEHLSLQDLSDHASSADHAPTDQSPAMPMQNSSEEITVAGNLEKSAERSTQGLKFHLHTRQEASLSVTSTRMHEPQMFLGEKDWHPENQNLSQVSDPQQHEEPGNEQYEVAQQKASHDQEYLCNIGDLELPEERQQNQHKIVDLEATMKGNGLPQNVDPPSAKKSIPSSECSGCSNSETFMEIDTAQQSLVTLLNSTGRQNANVKNIGALDLTLDNPLMEVETSKCNPSSEILNDSISTQDLQPPETNVEIPGTNKEYGHYSSPSLCGSCQPSVESAEESCPSITAALKELHELLVVSSKPASENTSEEVICQSETIAEGQTSIKDLSERWTQNEHLTQNEQCPQVSFHQAISVSVETEKLTGTSSDTGREAVENVNFRSLGDGLSTDKEGVPKSRESINKNRSVTVTSAKTSNQLHCTLGVEISPKLLAGEEDALNQTSEQTKSLSSNFILVKDLGQGIQNSVTDRPETRENVCPDASRPLLEYEPPTSHPSSSPAILPPLIFPATDIDRILRAGFTLQEALGALHRVGGNADLALLVLLAKNIVVPT
modifications: C-terminal His6 tag
B1: in assay [1], the “inhibitory effect on expression of hSGLT1 when the exocytotic pathway is blocked” value is “could be prevented”. In assay [1] (5 ng hRS1 plus 1.7 ng BTXB, 30 min), the “inhibition of AMG uptake by injected hRS1 protein in the presence of BTXB” value was “no inhibition”. For the same molecule, the “inhibition of hSGLT1 expressed AMG uptake after stimulation of protein kinase C” value in assay [1] (PKC stimulated with DOG or PMA) is listed as “increased”. Moreover, in assay [1] (dominant negative dynamin I coexpressed), the “inhibition of hSGLT1 expressed AMG uptake with coexpressed dominant negative mutant of dynamin I” value is given as “reduced”. Further, the “inhibition of hSGLT1 expressed AMG uptake when endocytosis is inhibited” value in assay [1] (with clorpromazin, imipramin or filipin, data not shown) is listed as “unchanged”. Moreover, the “hOCT1 expressed [14C]TEA uptake after injection” value in assay [5] was “appears to be inhibited”.
